Laboratory results taken from ChEMBL document CHEMBL1151830, “Cottoquinazoline A and cotteslosins A and B, metabolites from an Australian marine-derived strain of Aspergillus versicolor” (J Nat Prod, 2009).
≈ marks a conversion by molar mass, not a printed value. Non-standard residues stand in square brackets, D forms with d. Residues, ends and D or L forms follow the SMILES beside them. NMeY = CN[C@@H](Cc1ccc(O)cc1)C(=O)O

Experiments:
Format in all cases: functional, cell-based
[1] = Cytotoxicity against human MM418c5 cells
T47D = test: Cytotoxicity against human T47D cells
DU-145 = test: Cytotoxicity against human DU145 cells

Compound CC[C@H](C)[C@@H]1NC(=O)[C@H](C(C)C)NC(=O)[C@@H]2CCCN2C(=O)[C@H](Cc2ccc(O)cc2)NC(=O)[C@H](Cc2ccc(O)cc2)N(C)C1=O [COTTESLOSIN A] (cyclo(I[NMeY]YPV)) has an EC50 [1] of 66 µg/mL (≈ 102 µM), an EC50 (T47D) of 94 µg/mL (≈ 145 µM) and an EC50 (DU-145) of 90 µg/mL (≈ 139 µM).
